From ChEMBL document CHEMBL5356967, “Design, synthesis, evaluation and optimization of novel azole analogues as potent antifungal agents” (Bioorg Med Chem, 2024)
Values after ≈ are worked out from the molar mass of the structure shown.

Key:
Type in all cases: functional
[1] = tested on: Candida albicans; assay: Antifungal activity against Candida albicans Y0109 assessed as inhibition of fungal growth incubated for 24 hrs by broth microdilution method
[2] = tested on: Candida tropicalis; assay: Antifungal activity against Candida tropicalis 0370354 assessed as inhibition of fungal growth incubated for 24 hrs by broth microdilution method
[3] = tested on: Trichophyton rubrum; assay: Antifungal activity against Trichophyton rubrum 0501124 assessed as inhibition of fungal growth incubated for 24 hrs by broth microdilution method
[4] = tested on: Candida parapsilosis; assay: Antifungal activity against Candida parapsilosis 0306392 assessed as inhibition of fungal growth incubated for 24 hrs by broth microdilution method; conditions: Lodderomyces parapsilosis
[5] = tested on: Cryptococcus neoformans; assay: Antifungal activity against Cryptococcus neoformans ATCCBLS108 assessed as inhibition of fungal growth incubated for 72 hrs by broth microdilution method
[6] = tested on: Candida albicans; assay: Antifungal activity against Candida albicans SC5314 assessed as inhibition of fungal growth incubated for 24 hrs by broth microdilution method
[7] = tested on: Nannizzia gypsea; assay: Antifungal activity against Microsporum gypseum 0310388 assessed as inhibition of fungal growth incubated for 24 hrs by broth microdilution method
[8] = tested on: Aspergillus fumigatus; assay: Antifungal activity against Aspergillus fumigatus 0504656 assessed as inhibition of fungal growth incubated for 48 hrs by broth microdilution method
[9] = tested on: Candida albicans; assay: Potency index, ratio of Ketoconazole MIC80 to test compound MIC80 for antifungal activity against Candida albicans Y0109 assessed as inhibition of fungal growth incubated for 24 hrs by broth microdilution method
[10] = tested on: Candida albicans; assay: Potency index, ratio of Ketoconazole MIC80 to test compound MIC80 for antifungal activity against Candida albicans SC5314 assessed as inhibition of fungal growth incubated for 24 hrs by broth microdilution method
[11] = tested on: Candida albicans; assay: Antifungal activity against fluconazole-resistant Candida albicans 904 assessed as inhibition of fungal growth incubated for 24 hrs by broth microdilution method
[12] = tested on: Candida albicans; assay: Potency index, ratio of Fluconazole MIC80 to test compound MIC80 for antifungal activity against Candida albicans Y0109 assessed as inhibition of fungal growth incubated for 24 hrs by broth microdilution method
[13] = tested on: Candida albicans; assay: Antifungal activity against fluconazole-resistant Candida albicans 901 assessed as inhibition of fungal growth incubated for 24 hrs by broth microdilution method
[14] = tested on: Candida albicans; assay: Potency index, ratio of Fluconazole MIC80 to test compound MIC80 for antifungal activity against Candida albicans SC5314 assessed as inhibition of fungal growth incubated for 24 hrs by broth microdilution method

Compound	MIC80 [1] [µg/mL]	MIC80 [2] [µg/mL]	MIC80 [3] [µg/mL]	MIC80 [4] [µg/mL]	MIC80 [5] [µg/mL]	MIC80 [6] [µg/mL]	MIC80 [7] [µg/mL]	MIC80 [8] [µg/mL]	Ratio [9]	Ratio [10]	MIC80 [11] [µg/mL]	Ratio [12]	MIC80 [13] [µg/mL]	Ratio [14]
Oc1ccc([C@@]2(Cn3ccnc3)OC[C@H](Cn3cc(C4CC4)nn3)O2)c(F)c1 (mixture of isomers)	0.063	0.25	4	0.25	0.25	0.25	0.125	16						
Oc1ccc([C@@]2(Cn3ccnc3)OC[C@H](Cn3cc(COc4ccccc4)nn3)O2)c(F)c1 (mixture of isomers)	0.063	0.125	1	0.125	0.063	0.063	0.25	16						
CNCCc1cn(C[C@H]2CO[C@](Cn3ccnc3)(c3ccc(O)cc3F)O2)nn1 (mixture of isomers)	0.063	0.25	1	0.25	0.125	0.125	0.25	> 64						
Oc1ccc([C@@]2(Cn3ccnc3)OC[C@H](Cn3cc(-c4ccccn4)nn3)O2)c(F)c1 (mixture of isomers)	0.063	4	4	0.25	0.125	0.25	0.125	16						
CCCN(CCC)CCc1cn(C[C@H]2CO[C@](Cn3ccnc3)(c3ccc(O)cc3F)O2)nn1 (mixture of isomers)	0.016	1	0.125	0.25	0.125	0.016	0.125	> 64	64	64	> 64	16	> 64	16
CCCc1ccc(-c2cn(C[C@H]3CO[C@](Cn4ccnc4)(c4ccc(O)cc4F)O3)nn2)cc1 (mixture of isomers)	0.063	4	2	2	0.25	0.125	2	> 64						
CCCCCOc1ccc(-c2cn(C[C@H]3CO[C@](Cn4ccnc4)(c4ccc(O)cc4F)O3)nn2)cc1 (mixture of isomers)	0.016	1	0.5	0.125	0.063	0.016	0.25	16	64	64	> 64	16	> 64	16
Cc1ccc(-c2cn(C[C@H]3CO[C@](Cn4ccnc4)(c4ccc(O)cc4F)O3)nn2)cc1 (mixture of isomers)	0.063	0.25	4	2	2	0.063	4	> 64						
Cc1cccc(-c2cn(C[C@H]3CO[C@](Cn4ccnc4)(c4ccc(O)cc4F)O3)nn2)c1 (mixture of isomers)	0.063	0.25	2	0.25	0.125	0.063	0.125	> 64						
CC1CCN(CCc2cn(C[C@H]3CO[C@](Cn4ccnc4)(c4ccc(O)cc4F)O3)nn2)CC1 (mixture of isomers)	0.063	0.25	1	0.125	0.063	0.016	0.25	> 64						
Oc1ccc([C@@]2(Cn3ccnc3)OC[C@H](Cn3cc(-c4ccccc4)nn3)O2)c(F)c1 (mixture of isomers)	0.063	0.5	0.25	0.125	0.125	0.125	0.125	> 64						
Oc1ccc([C@@]2(Cn3ccnc3)OC[C@H](Cn3cc(CCN4CCC(O)CC4)nn3)O2)c(F)c1 (mixture of isomers)	0.063	0.25	0.25	0.125	0.125	0.016	0.125	16						
Oc1ccc([C@@]2(Cn3ccnc3)OC[C@H](Cn3cc(CCN4CCCC4)nn3)O2)c(F)c1 (mixture of isomers)	0.063	0.25	0.25	0.125	0.063	0.063	0.5	16						
Oc1ccc([C@@]2(Cn3ccnc3)OC[C@H](Cn3cc(C(O)c4ccccc4)nn3)O2)c(F)c1 (mixture of isomers)	0.063	0.125	1	0.125	0.063	0.125	0.25	> 64						
Oc1ccc([C@@]2(Cn3ccnc3)OC[C@H](Cn3cc(-c4cccc(F)c4)nn3)O2)c(F)c1 (mixture of isomers)	0.063	1	2	0.125	1	0.125	1	> 64						
CCN(CC)CCc1cn(C[C@H]2CO[C@](Cn3ccnc3)(c3ccc(O)cc3F)O2)nn1 (mixture of isomers)	0.016	0.125	0.25	0.125	0.063	0.016	0.125	16	64	64	> 64	16	> 64	16
Oc1ccc([C@@]2(Cn3ccnc3)OC[C@H](Cn3cc(CCNC4CC4)nn3)O2)c(F)c1 (mixture of isomers)	0.063	0.125	0.125	0.25	0.125	0.125	0.25	> 64						
CC(C)(C)c1ccc(-c2cn(C[C@H]3CO[C@](Cn4ccnc4)(c4ccc(O)cc4F)O3)nn2)cc1 (mixture of isomers)	0.063	0.125	0.25	0.125	0.063	0.063	0.25	> 64						
Oc1ccc([C@@]2(Cn3ccnc3)OC[C@H](Cn3cc(-c4ccc(F)cc4)nn3)O2)c(F)c1 (mixture of isomers)	0.063	4	4	0.25	0.125	0.125	0.125	> 64						
N#CCc1ccc(-c2cn(C[C@H]3CO[C@](Cn4ccnc4)(c4ccc(O)cc4F)O3)nn2)cc1 (mixture of isomers)	0.063	1	0.25	0.125	0.125	0.125	0.125	16						
COc1ccc(-c2cn(C[C@H]3CO[C@](Cn4ccnc4)(c4ccc(O)cc4F)O3)nn2)cc1 (mixture of isomers)	0.063	0.25	0.5	0.125	0.063	0.063	0.25	> 64						
CCC(C)n1ncn(-c2ccc(N3CCN(c4ccc(OCC5COC(Cn6cncn6)(c6ccc(Cl)cc6Cl)O5)cc4)CC3)cc2)c1=O (configuration not stated) [ITRACONAZOLE]	0.063 (≈ 0.0893 µM)	0.25 (≈ 0.354 µM)	0.063 (≈ 0.0893 µM)	0.25 (≈ 0.354 µM)	0.063 (≈ 0.0893 µM)	0.25 (≈ 0.354 µM)	0.25 (≈ 0.354 µM)	1 (≈ 1.42 µM)						
CC(=O)N1CCN(c2ccc(OC[C@@H]3CO[C@@](Cn4ccnc4)(c4ccc(Cl)cc4Cl)O3)cc2)CC1 [LEVOKETOCONAZOLE]	1 (≈ 1.88 µM)	32 (≈ 60.2 µM)	4 (≈ 7.53 µM)	2 (≈ 3.76 µM)	1 (≈ 1.88 µM)	1 (≈ 1.88 µM)	16 (≈ 30.1 µM)	> 64			> 64		> 64	
C[C@@H](c1ncncc1F)[C@](O)(Cn1cncn1)c1ccc(F)cc1F [VORICONAZOLE]	0.016 (≈ 0.0458 µM)	0.063 (≈ 0.18 µM)	0.063 (≈ 0.18 µM)	0.016 (≈ 0.0458 µM)	0.016 (≈ 0.0458 µM)	0.016 (≈ 0.0458 µM)	0.063 (≈ 0.18 µM)	0.25 (≈ 0.716 µM)						
